Source: US20240263147A1, “CARDIAC ORGANOID AND ANTI-ELECTRO-MITOCHONDRIAL DESYNCHRONIZATION THERAPY” (YISSUM RESEARCH DEVELOPMENT COMPANY OF THE HEBREW …, priority 2021, published 2024)
Entries after “also recorded” stand apart in the source; their conditions may differ.

Assays:
[1] = test system: vascularized cardiac organoids; assay: Integrated metabolic-electro-mechanical sensor chip: simultaneous contraction, field potential and interstitial oxygen; format: cell-based, human; conditions: for reversal of mitoxantrone-induced arrhythmic behavior: 100 μM metformin concurrent with 10 μM mitoxantrone
[2] = test system: hiPSC-derived cardiomyocytes; assay: Live imaging of mitochondrial calcium (Rhod-2AM) and visual contraction analysis in 2D culture; format: cell-based, human; conditions: n=4
[3] = test system: porcine cardiac tissue
Source text: The tissue was procured post-mortem from a 70 kg domestic female pig that underwent a laparoscopic liver operation (Ethical approval number MD-21-16533-3) and was euthanized using a lethal dose of potassium chloride. […] The lung was retracted, and the pericardium was incised.
The anterior wall of the left ventricle was incised from base to apex and several slices measuring 2-3 mm in length and 1-2 mm thick were obtained using a #10 scalpel blade. Cardiac tissues were further cut into 500±200 μm thick slices and washed thoroughly with 37° C. pre-warmed ex-vivo medium composed of M199 medium, supplemented with 1×insulin-transferrin-selenium (ITS), 10% fetal bovine serum (FBS), and 5 ng/mL vascular endothelial growth factor (VEGF), and 10 mM of 2-[4-(2-hydroxyethyl)piperazin-1-yl]ethanesulfonic acid (HEPES).
The cardiac explants were then embedded with oxygen sensors, placed on the MEAs chip, and transferred to a 37° C. temperature-controlled incubation chamber that contains M199 medium supplemented with 1× ITS, 10% FBS, 5 ng/mL VEGF, and 10 mM HEPES to support long term function, as previously described. The explant was continuously point-stimulated at 2 Hz cycle length. Contraction, field potential, and oxygen were assessed using the integrated metabolic-electro-mechanical sensor chip. […]

[4] = test system: hiPSC-derived vascularized cardiac organoids; assay: Beating of vascularized cardiac organoids under pharmaceutical stimulation; format: cell-based, human
Experimental: hiPS-derived cardiomyocytes and microvascular cardiac endothelial cells (VEC Technologies, USA) were counted and mixed in a 2:1 ratio in growth factor reduced Matrigel (BD Biosciences, San Jose, CA) at a cell density of 6.8×10^4 cells per μl. A volume of 1.1 μl of the gel-imbedded mixture (7.48×10^4 cells) was injected into each microwell and left to form spontaneously in RPMI-1640 supplemented with B27 minus insulin and 5 ng/ml vascular endothelial growth factor (VEGF-A, Peprotech) until their spontaneous beating was regained after 6-10 days.
Fast phase-contrast imaging (17 frames per second) was performed at suitable magnification using an LSM-700 Zeiss microscope. The time-lapse micrograph was analyzed using a custom MATLAB® code. Briefly, multiple regions of interest (ROIs) were selected on the cardiac tissue borders, producing a distinct area with changes representative of the cardiac contraction. Dynamic changes in the ROI intensity were measured over time and converted into beating rates using Fast Fourier Transformation (FFT). Contractility was calculated based on the frequency amplitude magnitude.

CN(C)C(=N)N=C(N)N [metformin]
reversal of mitoxantrone-induced arrhythmic behavior [1]: reverts the effect, displaying regular heart contraction and field potential; also recorded: reversed this effect | reversal of mitoxantrone-induced arrhythmic behavior ([1]; listed as Metformin): rescues the arrhythmic cardiac behavior | beating rate ([1]; metformin (100 μM) combined with mitoxantrone (10 μM), from 82 BPM): 61 BPM | increase in mean mitochondrial calcium content ([2]; 100 μM metformin added to 10 μM mitoxantrone treatment): 3.4 fold | beating frequency ([3]; 100 μM metformin concurrent with 10 μM mitoxantrone): 1.4 Hz

O=C1c2c(O)ccc(O)c2C(=O)c2c(NCCNCCO)ccc(NCCNCCO)c21 [mitoxantrone]
effect on mechanical contraction, electrical depolarization and oxygen concentration ([1]; mitoxantrone exposure (10 μM)): markedly decreased | contraction rate ([1]; mitoxantrone exposure (10 μM), from 53 BPM): 79 BPM | decrease in mitochondrial calcium ([2]; 10 μM mitoxantrone alone): 79% | beating frequency (cardiac rhythm) ([3]; female, pig, 10 μM): 2 Hz

CNC[C@H](O)c1ccc(O)c(O)c1 [epinephrine]
effect on contractility and contraction rate [1]: increases the contractility and contraction rate | effect on mean interstitial oxygen concentration [1]: decreasing the mean interstitial oxygen concentration | increase of contraction [1]: 33% | organoid contraction frequency [1]: 1.95 Hz | contraction (beating) rate [4]: 88±7 bpm

CCCCc1oc2ccccc2c1C(=O)c1cc(I)c(OCCN(CC)CC)c(I)c1 [amiodarone]
decrease of contraction / contraction amplitude ([4]; 10 μM amiodarone, n=6): 28% | contraction rate ([4]; 10 μM amiodarone, spontaneous beating 66±5 bpm, n=6): 52±4 bpm
